Test results from US20240271096A1, “EFFICIENT DIFFERENTIATION OF SECOND HEART FIELD CARDIAC PROGENITOR CELLS AND RIGHT VENTRICLE CARDIOMYOCYTES FROM HUMAN PLURIPOTENT STEM CELLS” (Wisconsin Alumni Research Foundation, priority 2023, published 2024).

System: SMAD1/5
Test: Western blotting of SMAD1/5 phosphorylation in GiWi protocol
Assay type: cell-based, human
Details: insulin added on differentiation day 0; measured on day 3
From the text: Using the cell lysis solution contained in the Minute Total Protein Extraction Kit for Animal Cultured Cells/Tissues (Invent Biotechnologies, Plymouth, MN, United States) with Protease Inhibitor Cocktail Set III (×100) (Fujifilm Wako Pure Chemical Corporation, Osaka, Japan) and Phosphatase Inhibitor Cocktail Solution II (×100) (Fujifilm Wako Pure Chemical Corporation), cells at day 3 of differentiation were lysed and proteins were extracted according to the manufacturer's instructions. Protein concentration was measured with a Pierce BCA Protein Assay Kit (Thermo Fisher Scientific), iMark microplate reader and Microplate Manager 6 software (Bio-Rad, Hercules, CA, USA). Fifty micrograms of protein combined with Laemmli sample buffer (Bio-Rad) were boiled at 95° C. for 5 minutes and then loaded onto 10% Mini-PROTEAN TGX Precast Gels (Bio-Rad). Proteins were transferred to nitrocellulose membranes and blocking was performed using Tris buffered saline with Tween20 with 5% nonfat dry milk for 1 hour at room temperature. […] Immunoblotted proteins were detected by ECL Prime Western blotting detection reagents and ImageQuant LAS4000 mini (GE Healthcare, Chicago, IL, USA).

Substance: insulin
- phosphorylation of SMAD1/5: suppressed
